Structures can show the parent of a compound that is named as a salt. Where two headings read alike, the source gives them in different places.
Assays:
[1] = molecular target: T1, EGFR (Homo sapiens, UniProt P00533); test: EGFR in-cell Western (ICW) screening protocol (EGFR inhibition assay); type: cell-based; design: ICW 1 / ICW 2 / ICW Avg: unit not given here; conditions: for ICW assay: Table 10, % Inhibition of EGF dependent EGFR phosphorylation in A431 cells, compound 125 μM in assay; for ICW Avg / ICW 1 / ICW 2: ICW assay; for ICW Avg: average of runs 1 and 2; for ICW 1: run 1; for ICW 2: run 2
T1 construct: host or cells: A431
T1 sequence (P00533 25-1210): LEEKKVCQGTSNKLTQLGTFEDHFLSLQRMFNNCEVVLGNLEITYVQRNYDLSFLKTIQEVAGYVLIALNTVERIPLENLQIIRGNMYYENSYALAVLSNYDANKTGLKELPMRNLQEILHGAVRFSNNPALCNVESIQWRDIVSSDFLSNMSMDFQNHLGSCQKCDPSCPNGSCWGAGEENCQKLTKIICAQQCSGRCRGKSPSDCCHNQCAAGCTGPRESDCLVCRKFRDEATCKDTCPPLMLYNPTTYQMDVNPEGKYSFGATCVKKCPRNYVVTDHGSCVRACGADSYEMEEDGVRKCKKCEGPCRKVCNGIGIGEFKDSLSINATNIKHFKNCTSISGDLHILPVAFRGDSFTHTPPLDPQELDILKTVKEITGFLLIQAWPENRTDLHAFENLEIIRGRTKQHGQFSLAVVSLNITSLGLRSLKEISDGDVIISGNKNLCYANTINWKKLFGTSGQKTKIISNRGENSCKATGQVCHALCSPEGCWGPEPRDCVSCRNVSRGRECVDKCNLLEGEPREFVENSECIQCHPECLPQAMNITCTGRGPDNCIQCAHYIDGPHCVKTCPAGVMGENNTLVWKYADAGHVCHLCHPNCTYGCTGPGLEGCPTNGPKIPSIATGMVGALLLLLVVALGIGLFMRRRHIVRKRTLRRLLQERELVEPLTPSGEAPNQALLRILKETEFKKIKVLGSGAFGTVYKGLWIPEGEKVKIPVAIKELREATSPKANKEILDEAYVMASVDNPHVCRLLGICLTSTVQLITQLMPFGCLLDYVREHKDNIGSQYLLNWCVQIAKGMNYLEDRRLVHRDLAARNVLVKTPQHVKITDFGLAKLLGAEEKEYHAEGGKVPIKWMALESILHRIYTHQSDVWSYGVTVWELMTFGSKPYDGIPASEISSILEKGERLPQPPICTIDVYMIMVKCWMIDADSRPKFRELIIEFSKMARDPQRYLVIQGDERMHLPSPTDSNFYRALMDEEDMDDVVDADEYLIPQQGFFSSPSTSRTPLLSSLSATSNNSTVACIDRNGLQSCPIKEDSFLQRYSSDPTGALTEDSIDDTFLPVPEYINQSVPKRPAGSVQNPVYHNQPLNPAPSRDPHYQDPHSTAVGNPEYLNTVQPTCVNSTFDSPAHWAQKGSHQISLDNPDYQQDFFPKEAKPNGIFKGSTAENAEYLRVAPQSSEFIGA
Protocol: The following example describes general EGFR in-cell Western (ICW) screening protocol. Methods are according to Chen et al. (2005) Analytical Biochemistry 338, 136-142 (incorporated herein by reference), except as otherwise noted.
Cell Plates: A431 cells (ATCC # CRL-1555) were grown in Dulbecco's Modified Eagle Medium (DMEM; ATCC #30-2002) supplemented with 10% fetal bovine serum, 105 units/ml pen/strep (Invitrogen #15140155) and 2.1 mM L-glutamine (ATCC #30-2214). Cells were seeded into 96 well tissue culture plates (BD Falcon #353948) at a density of 30,000 cells per well and incubated at 37° C. with 5% CO2 overnight. Two cell plates were prepared for each compound plate.
Serum Starvation: The cells were serum starved prior to compound addition. The media was removed by aspiration and the cells washed with PBS (200 μl/well; Invitrogen #20012-027). The PBS was removed by aspiration and replaced with 200 μl of DMEM (ATCC #30-2002) supplemented with 105 units/ml pen/strep (Invitrogen #15140155) and 2.1 mM 1-glutamine (ATCC #30-2214). The cell plates were incubated at 37° C./5% CO2 for 2 hours.
Compound Plate Preparation: The test compounds were solvated in 100% DMSO (Sigma #472301-2L) at a concentration of 25 mM. Compounds found not to be completely soluble in 100% DMSO at 25 mM were diluted to 10 mM with 100% DMSO and TFA (Fluka #91699) added to a final concentration of 0.2%. 40 μl of test compound was added to the appropriate well of a 96 well plate (Falcon #351190). As controls, 6 μM EGFR kinase inhibitor PD168393 (EMD/Calbiochem #513033) in 100% DMSO and DMSO alone were added to various wells. Prepared compound plates were stored at RT prior to use and at 4° C. long term.
Compound Dilution Plate Preparation: 250 μl of DMEM supplemented with 1 mg/ml BSA (Sigma A3059-10G) was added to the appropriate wells of a 96 well plate to prepare the compound dilution plates. Using a multichannel pipettor, 1.25 μl of compound from the compound plate was transferred into the compound dilution plate.
Compound Addition: The starve media was removed from the cell plates by aspiration. Using a multichannel pipettor, the compound dilution plates were mixed by pipetting up and down three times. 50 μl of mixed, diluted compound was added to each of two rows/columns on each of two cell plates. The cell plates with compound were incubated at 37° C./5% CO2 for 4 hours.
EGF Addition: 20 ng/ml EGF (Upstate #01-107) was prepared in DMEM supplemented with 1 mg/ml BSA. 50 μl of 20 or 0 ng/ml EGF was added to the appropriate wells without the removal of compound. The compound and EGF were mixed by pipetting up and down three times. The plates were incubated at 37° C./5% CO2 for 10 min. In some screening assays the final concentration of EGF used for simulation was 6.6, or 12.5 ng/ml rather than 10 ng/ml.
Fixation and Triton Washing: The EGF+compound was removed by aspiration and 150 μl of freshly prepared Fixation Solution (1×PBS, Sigma P3813-10PK, and 4% Formaldehyde, Pierce #28908) was immediately added. The plates were incubated at RT for 20 min without shaking. The Fixation Solution was removed by aspiration and the plates washed four times with 200 μl each of Triton Wash Solution (1×PBS, Sigma P3813-10PK, and 0.1% Triton X-100, T8787-50ML) for 5 min with gentle shaking.
Blocking and Probing: Following the last Triton Wash, the plates were blocked for 1.5 h at RT with shaking using 150 μl of Odyssey Blocking Buffer (LI-COR #927-40000). The block was removed by aspiration and 50 μl of diluted primary Ab mix was added. The plates were incubated at 4° C. overnight with gentle shaking. The plates were washed five times with 200 μl of PBST (1×PBS, Sigma P3813-10PK, and 0.1% Tween-20, Sigma P9416-50ML) for 5 min each with shaking 50 μl of diluted secondary Ab mix was added and the plates incubated at RT for 1 h with shaking. The plates were washed 5× with 200 μl of PBST for 5 min each with shaking. […]

[2] = test system: epithelial carcinoma A431 cell line; test: MTT Cell Proliferation Assay, A431 cells; type: cell-based; conditions: for MTT assay, % at 2.6 microMolar: cell line not stated; for MTT Assay IC50(A431/MDBK): A431: A431 cells
Text: The following example describes the MTT Cell Proliferation Assay.
The MTT Cell Proliferation Assay is a colorimetric assay system that measures the reduction of the tetrazolium salt MTT (3-(4,5-dimethylthiazol-2-yl)-2,5-diphenyltetrazolium bromide) into insoluble formazan crystals, produced by the mitochondria of viable cells. […] The color can then be quantified by spectrophotometric means. Among the applications for the method are drug sensitivity, cytotoxicity, response to growth factors, and cell activation. The reduction of tetrazolium salts is now recognized as a safe, accurate alternative to radiometric testing.
Two replicates on each cell plate and 2 duplicate plates gave 4 individual replicates of each concentration, in each cell line. Concentrations were diluted in 100% DMSO from 25 mM stocks.
Twelve 96 well plates of each cell line were plated. Plating was done by dislodging cells as in passage protocol, counting on a hemocytometer, re-suspending in standard growth media, and plating using a multichannel pippetor.
16 μl of 25 mM stock+34 μl DMSO=8 mM starting concentrations, and serial diluted as with test compounds in same plate. […] Two replicates of each concentrations was run on each cell plate. All compound addition and cell treatments were done using aseptic technique under a laminar flow aseptic hood.
Control: 0.5% DMSO in treatment media was used as the control.
MTT dye (Thiazolyl Blue Tetrazolium Bromide, Sigma cat #M5655) stock was prepared in bulk and stored at 4° C. for use: 5 mgs/ml sterile PDS, shielded from light. 4 ul of this stock per 100 uls treatment media per well was used.
Plates were incubated overnight prior to treatment, with treatment day=Day 0. Compound treatments were prepared prior to washing cells to minimize time cells were dry at room temperature after final aspiration. Compounds were diluted in 100% DMSO in 96 well polypropylene plates: 40 μl 25 mM stock+10 μl DMSO=20 mM; 20 μl of 20 mM+30 μl DMSO=8 mM; 20 μl of 8 mM+30 μl DMSO=3.2 mM; 20 μl of 3.2 mM+30 μl DMSO=1.3 mM; 20 μl of 1.3 mM+30 μl DMSO=0.51 mM.
5.0 μl/ml were added to treatment media, in sterile, 2.2 ml deep well plates=0.5% dmso final. Ten μl of each dmso concentration was added to 2.0 ml of treatment media and then mixed using a 1200 μl multichannel pipettor. Cell plates were treated from the deep well plates. Treatment media was standard growth media containing 0.5% FBS and standard additions. This reduced FBS concentration allowed for a slower growth rate in cells.
Media was aspirated from cell plates, and washed with 200 μl/well sterile PBS. Aspirated PBS wash, and cell plates were treated with 200 μl of compound/treatment media per well, and incubated at 37° C., 5% CO2 for 3 days.
Prior to harvesting, visual observations were made under an inverted microscope. Plates were harvested by: aspirating the growth media; adding back MTT dye/100 μl treatment media; and incubating plates at 37° C. for 1 hour. MTT dye was aspirated. 100 μl/well dmso was added, and then shaken on a Bellco plate shaker for 5 minutes, at 4.5 setting.
Plates were read in a Tecan Sunrize UV plate reader, at 560 nm. Settings: Read mode, Outside Normal 2 sec; Shake settle time 3 sec. Data is reported as % inhibition, calculated for individual plates using control values from that plate.

[3] = first value of 'a/b (c)', taken as A431 cells

SMILES | ICW Avg [1] | ICW 1 [1] | ICW 2 [1] | MTT Assay IC50(A431/MDBK): A431 ([2]; first value of cell) | ICW Screen (ICW Inhibition) [1] | also measured
CC1CCc2cc(F)ccc2N1S(=O)(=O)c1ccc(NC(=S)Nc2cccc(C(F)(F)F)c2)cc1 (centres unmarked) [AD4-12846] |  |  |  |  |  | ICW assay [1]: 71.4924; MTT assay, % at 2.6 microMolar ([2]; Table 10): 71%
COc1ccc(C2CC(=O)c3cnc(Nc4nc(-c5ccccc5)c5ccccc5n4)nc3C2)cc1 (centres unmarked) [11663 + TFA] | 26.73 | 31.73 | 21.73 | non-convergent |  | 
CCCC(=O)NC(=S)Nc1ccc(S(=O)(=O)Nc2cc(C)on2)cc1 [AD4-12267] |  |  |  |  | 30.36 | MTT Screen, first value of cell [2, 3]: non- conver- gent
CN(c1ccccc1)S(=O)(=O)c1ccc(NC(=S)NC(=O)C2CC2)cc1 [AD4-12164] |  |  |  |  | 45.64 | IC50 ([2]; Homo sapiens, A-431, first value of 'a/b (c)', taken as A431 cells, read-out: MTT Screen, first value of cell): 50.6 µM; IC50 ([2]; first value of 'a/b (c)', taken as A431 cells, read-out: MTT Screen, first value of cell): 51.4 µM
CN(c1ccccc1)S(=O)(=O)c1ccc(NC(=S)NC(=O)/C=C/c2cccs2)cc1 [AD4-12288] |  |  |  |  | 35.584 | MTT Screen, first value of cell [2, 3]: non- conver- gent
CCCc1cc(=O)[nH]c(Nc2nc(C)c3ccc(OC)cc3n2)n1 [AD4-12652 + TFA] | 73.45 | 82.35 | 64.55 | NOT ACTIVE |  | 
CCOc1cccc2c(C)nc(Nc3nc(-c4ccccc4)cc(=O)[nH]3)nc12 [compound 11492] | 62.29 | 53.35 | 71.23 | non-convergent |  | 
Cc1ccc(C)c(NC(=S)Nc2ccc(S(=O)(=O)N3c4ccc(F)cc4CCC3C)cc2)c1 (centres unmarked) [AD4-12824] |  |  |  |  |  | ICW assay [1]: 25.9501; MTT assay (first value) ([2]; Table 10, first of x/y(ratio): A431, three day treatment, unit not printed (doses in μM)): Not Active
Cc1cc(C)c2nc(Nc3nc(CSc4ccc(Cl)cc4)cc(=O)[nH]3)nc(C)c2c1 [11726 + TFA] | 30.87 | 35.72 | 26.02 | NOT ACTIVE |  | 
CC(C)C(=O)NC(=S)Nc1ccc(S(=O)(=O)N(C)c2ccccc2)cc1 [AD4-12042] |  |  |  |  | 34.592 | MTT Screen, first value of cell [2, 3]: non- conver- gent
COC(=O)CCC(=O)NC(=S)Nc1ccc(S(=O)(=O)Nc2cc(C)cc(C)c2)cc1 [AD4-12093] |  |  |  |  | 29.436 | MTT Screen, first value of cell [2, 3]: non- conver- gent
O=S(=O)(c1ccc(NC(=S)Nc2cccc(C(F)(F)F)c2)cc1)N1CCc2ccccc21 [AD4-12239] |  |  |  |  |  | ICW assay [1]: 67.8291; MTT assay, % at 2.6 microMolar ([2]; Table 10): 58%
CC(C)C(=O)NC(=S)Nc1ccc(S(=O)(=O)N2CCCC2)cc1 [AD4-11970] |  |  |  |  | 43.246 | MTT Screen, first value of cell [2, 3]: non- conver- gent
Cc1ccc(C2CC(=O)c3cnc(Nc4nc(C)c5cccc(C)c5n4)nc3C2)cc1 (centres unmarked) [11673 + TFA] | 25.35 | 33.30 | 17.39 | non-convergent |  | 
Cc1cc(C)c2nc(NC3=NC(c4ccccc4)CC(=O)N3)nc(C)c2c1 (centres unmarked) [AD4-12641 + TFA] | 72.20 | 70.26 | 74.15 | NOT ACTIVE |  | 
CCOc1cccc2c(C)nc(Nc3nc(C)c(Cc4ccc(C)cc4)c(=O)[nH]3)nc12 [11753 + TFA] | 44.86 | 42.44 | 47.28 | NOT ACTIVE |  | 
CC1CCc2cc(F)ccc2N1S(=O)(=O)c1ccc(NC(=S)Nc2cc(Cl)cc(Cl)c2)cc1 (centres unmarked) [AD4-12843] |  |  |  |  |  | ICW assay [1]: 43.3347; MTT assay, % at 2.6 microMolar ([2]; Table 10): 74%
Cc1ccc2c(C)nc(Nc3nc(C)cc(=O)[nH]3)nc2c1 [11725 + TFA] | 28.93 | 26.65 | 31.20 |  |  | IC50 ([2]; Homo sapiens, A-431, A431 cells, first value of cell, read-out: MTT Assay IC50(A431/MDBK): A431): 13 µM
